Assay results: the NIST ThermoML archive (doi:10.1021/je0501991)

Columns and labels:
[1] = excess molar enthalpy (molar enthalpy of mixing); xn = mol fraction of the nth substance listed; conditions: 308.15 K, 101.33 kPa, Liquid
[2] = refractive index (Na D-line) (dimensionless); xn = mol fraction of the nth substance listed; conditions: 308.15 K, 101.33 kPa, Liquid, Standard Abbe refractometry
[3] = xn = mol fraction of the nth substance listed; conditions: 308.15 K, 101.33 kPa, Liquid
[4] = molar heat capacity at constant pressure; xn = mol fraction of the nth substance listed; conditions: 101 kPa, Liquid

OCCCc1ccccc1 [3-phenyl-1-propanol] + C[S+](C)[O-]
Conditions	excess molar enthalpy [kcal/mol]	mass density [kg/m3]	refractive index	viscosity [mPa·s]
[1], x2 = 0.0737	-0.0543	–	–	–
[1], x2 = 0.1373	-0.0822	–	–	–
[1], x2 = 0.1927	-0.0951	–	–	–
[1], x2 = 0.2414	-0.103	–	–	–
[1], x2 = 0.3232	-0.101	–	–	–
[1], x2 = 0.389	-0.0946	–	–	–
[1], x2 = 0.4885	-0.0796	–	–	–
[1], x2 = 0.56	-0.0645	–	–	–
[1], x2 = 0.6563	-0.0423	–	–	–
[1], x2 = 0.7413	-0.0215	–	–	–
[1], x2 = 0.7925	-0.0115	–	–	–
[1], x2 = 0.8514	-0.00311	–	–	–
[1], x2 = 0.8843	0.00167	–	–	–
[1], x2 = 0.9162	0.00335	–	–	–
[1], x2 = 0.9386	0.0043	–	–	–
[1], x2 = 0.9582	0.00406	–	–	–
[1], x2 = 0.9787	0.00263	–	–	–
[2], x2 = 0.0936	–	–	1.5188	–
[2], x2 = 0.1499	–	–	1.5172	–
[2], x2 = 0.277	–	–	1.5132	–
[2], x2 = 0.3915	–	–	1.509	–
[2], x2 = 0.4564	–	–	1.5063	–
[2], x2 = 0.578	–	–	1.5008	–
[2], x2 = 0.6526	–	–	1.4969	–
[2], x2 = 0.7233	–	–	1.4931	–
[2], x2 = 0.7879	–	–	1.489	–
[2], x2 = 0.8512	–	–	1.4847	–
[2], x2 = 0.9027	–	–	1.4811	–
[2], x2 = 0.9543	–	–	1.4771	–
[3], x2 = 0.0936	–	996.28	–	8.592
[3], x2 = 0.1499	–	999.45	–	7.792
[3], x2 = 0.277	–	1007.07	–	6.19
[3], x2 = 0.3915	–	1014.73	–	5.032
[3], x2 = 0.4564	–	1019.55	–	4.488
[3], x2 = 0.578	–	1029.68	–	3.629
[3], x2 = 0.6526	–	1036.85	–	3.18
[3], x2 = 0.7233	–	1044.45	–	2.801
[3], x2 = 0.7879	–	1052.21	–	2.487
[3], x2 = 0.8512	–	1060.69	–	2.208
[3], x2 = 0.9027	–	1068.4	–	1.993
[3], x2 = 0.9543	–	1076.93	–	1.801

molar heat capacity at constant pressure [J/K/mol], [4]
Conditions	298.15 K	308.15 K	318.15 K
x2 = 0	276.3	284.1	291.8
x2 = 0.0905	259.9	265.7	273
x2 = 0.1204	250.3	256	262.8
x2 = 0.1712	243.4	249.7	256.2
x2 = 0.3375	211.1	215.5	220
x2 = 0.452	196.9	200	203.5
x2 = 0.5571	185.1	187.5	190.7
x2 = 0.6101	185.8	188.7	191.4
x2 = 0.6567	177	178.3	180.9
x2 = 0.7396	165.6	167.2	170
x2 = 0.806	162.2	163.9	165.4
x2 = 0.8718	159.2	160.5	161.9
x2 = 0.9487	148.5	149.3	151.3
